Measured values taken from PMC11476629, “Exploring a Potential Optimization Route for Peptide Ligands of the Sam Domain from the Lipid Phosphatase Ship2” (International Journal of Molecular Sciences, 2024).
“And” between values parts separate entries of the source, which are not always exact repeats. Equal values may be shown once. One block for each molecule: values may come before it. Residues, ends and D or L forms follow the SMILES beside them. No end group written: not given here. *: point of attachment. FITC = O=C1OC2(c3ccc(O)cc3Oc3cc(O)ccc32)c2ccc(NC(=S)*)cc21; Ahx = NCCCCCC(=O)O; βAla = NCCC(=O)O

Tests used:
PC-3 cells = conditions: 50 µM, 4 h, fluorescence (deconvolution) microscopy
Method: The FITC-TAT-PSscan255 peptide (50 μM) was added for 4 h to PC-3 cells (5 × 10^4/mL) that were positioned on coverslips inside a Petri dish. Following incubation, cells were first washed three times with PBS and then fixed in 4% paraformaldehyde in PBS for 15 min. Next, cell permeabilization was achieved via treatment with 0.3% Triton-X 100 in PBS for 30 min. After blocking for 15 min with 2% bovine serum albumin, the coverslips were marked with phalloidin-iFluor 594 (Abcam, Milan, Italy), which was diluted 1:1000 for 1 h. After three extra rinses with PBS, the nuclei were stained with Hoechst 33342 (Thermo Fisher Scientific, Milan, Italy), diluted 1:2000, and incubated for 15 min in the dark. Lastly, the coverslips were mounted onto microscope slides with Mowiol (Sigma from Merck Group, Milan, Italy) and permitted to cure for at least 48 h before undergoing microscopy imaging. Images were taken with a Nikon Eclipse Ti2-E inverted research microscope (Nikon Instruments, Melville, NY, USA) using standard phase contrast, epifluorescence microscopy, and deconvolution. Image acquisition was accomplished with an Andor Zyla 4.2+ sCMOS high-sensitivity monochrome camera and managed by Nikon NIS-Elements Advanced Research (AR) image acquisition and analysis software.

Ship2-Sam [1] = molecular target: T1, Ship2-Sam (Homo sapiens, UniProt O15357); experiment: BLI (BioLayer Interferometry) interaction assay; conditions: biotinylated-pegylated PSscan255 immobilized on streptavidin biosensor; Ship2-Sam 20-500 µM; 1:1 Langmuir model, global analysis; read-out: KD for binding to Ship2-Sam
T1 construct: The Sam (Sterile alpha motif) domain of the lipid phosphatase Ship2 (Ship2-Sam); made in house; host or cells: E. coli
T1 sequence (O15357 1196-1258 limits assumed): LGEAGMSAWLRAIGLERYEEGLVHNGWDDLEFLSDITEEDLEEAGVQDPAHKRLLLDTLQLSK
Method: The peptide was purchased in the biotinylated–pegylated form (Table S4) and immobilized on a streptavidin-coated biosensor. Kinetic experiments, carried out at diverse Ship2-Sam concentrations in the range of 20–500 µM (Figure S19), provided dose–response signals, allowing the estimation of a KD value equal to (70 ± 40) µM.
For BLI interaction assays, the Sartorius Octet® N1 System and streptavidin (SA)-coated biosensor tips (Sartorius Italy S.r.l., Grassina-Bagno a Ripoli (FI), Italy) were employed. SA biosensor tips were first hydrated in 1X PBS buffer; then, to achieve ligand immobilization, the tips were dipped, for 300 sec with 1000 rpm agitation, into 4 µL of biotinylated–pegylated PSscan255 solution (50 µg/mL). Following peptide loading, each tip was placed in contact, for 300 s with a 1000 rpm agitation speed, with 4 µL of Ship2-Sam protein at several concentrations (20, 50, 100, 300, and 500 µM). All mathematical manipulations were handled by the Octet Analysis Studio 12.2 software from Sartorius. A 1:1 Langmuir binding model was used for data fitting, and the KDs were obtained through the global analysis mode.

[2] = Serum stability in FBS (RP-HPLC); type: in vitro ADME; conditions: 25% fetal bovine serum, 25% FBS, 37 °C, peptide 80 µM, RP-HPLC UV peak area, average of two assays
Method: The PSscan255 peptide was mixed with 25% fetal bovine serum (FBS, from Merck group, Milan, Italy), previously incubated at 37 °C for 15 min, to obtain a peptide concentration equal to 80 µM in the end. These mixtures were kept at 37 °C and, at several time intervals (0, 1, 2, 3, 4, 5, 17, and 19 h), aliquots of the incubating solutions (50 µL) were quenched by using 15% trifluoroacetic acid (TFA) (50 µL) and then incubated at 2 °C for 15 min. Next, serum proteins were discarded by centrifugation (15 min at 3000 rpm), and samples were subjected to reverse-phase high-performance liquid chromatography (RP-HPLC). RP-HPLC runs were conducted with an HPLC LC-4000 series (Jasco) equipped with a UV detector by using a C18-Kinetek column (Phenomenex, Milan, Italy). Gradient elution was conducted at 25 °C; the gradient started with buffer A, consisting of water with 0.1% TFA. Then buffer B, consisting of acetonitrile with 0.1% TFA, was added from 5 to 70% in 20 min. The peak areas were integrated at diverse time lapses. Two assays were performed, and data points represent average values over the two experiments.

Ship2-Sam [3] = molecular target: T1, Ship2-Sam; experiment: NMR chemical shift perturbation studies with Ship2-Sam; type: binding; conditions: 1D 1H: Ship2-Sam 27 µM, peptide 273 µM; 1H-15N HSQC: Ship2-Sam 20 µM, peptide 200 µM; PBS, 298 K
Method: The interaction between diverse PSscan peptides and Ship2-Sam was assessed by NMR chemical shift perturbation (CSP) studies using both 1D [^1H] and 2D [^1H-^15N] HSQC experiments (Figure 4 and Figures S7–S10).
[^1H-^15N] HSQC spectra for chemical shift perturbation studies were acquired with ^15N labeled Ship2-Sam (20 μM concentration) in the absence and presence of PSscan255, PSscan258, and PSscan266 peptides (200 μM concentrations). For these experiments, concentrated peptide stocks in PBS were diluted in protein samples. The pH was checked upon each peptide’s addition and eventually carefully adjusted with NaOH or HCl solutions to avoid pH variations in the NMR samples. Chemical shift perturbation studies with 1D [^1H] NMR experiments were similarly recorded for Ship2-Sam alone (27 μM concentration) and in the presence of PSscan peptides (273 μM concentration). Spectra under identical experimental conditions were recorded for Ship2-Sam alone and following the addition of the control peptides.

[4] = Peptide self-aggregation by 1D 1H NMR at diverse concentrations; type: physicochemical; conditions: 1D 1H NMR in PBS/D2O (90/10 v/v), peptide 50-300 µM, constant pH
Method: In addition, to better understand results from NMR interaction assays, we evaluated whether peptide self-aggregation phenomena could occur in the peptide concentration range employed. Thus, NMR spectra were recorded for each PSscan peptide at diverse concentrations in the range of 50–300 µM (Figure 5, Figures S13 and S14). As all three peptides are rich in aromatic and positively charged residues, self-aggregation can occur not only through π–π stacking interactions but also through cation–π contacts between diverse peptide units. To better identify the signals of aromatic protons within 1D [^1H] NMR spectra in PBS, hydrogen/deuterium exchange experiments were conducted (Figure 5 and Figure S14). Indeed, an excess of D2O in solution induces the disappearance of HN and other exchangeable exposed protons, while aromatic and side-chain protons remain clearly visible (Figure 5 and Figure S14). When recording NMR spectra of peptides at different concentrations, particular care was also taken to keep the pH at a constant value to avoid undesired chemical shift changes.

PSscan255 = molecular target: T2, PSscan255 (synthetic construct, also: biotinylated and pegylated, positions not given here); experiment: BLI
T2 chain: KREWYKFLANKRIAY

- Interaction with Ship2-Sam by chemical shift perturbation (Ship2-Sam [3]): did not reveal high-affinity binding
Molecule: CSCC[C@H](NC(=O)[C@H](Cc1ccccc1)NC(=O)[C@H](CCCCN)NC(=O)[C@H](CC(=O)O)NC(=O)[C@H](CCC(=O)O)NC(=O)[C@H](CCCNC(=N)N)NC(=O)[C@H](CCCNC(=N)N)NC(=O)[C@@H](NC(=O)[C@@H]1CCCN1C(=O)CNC(C)=O)[C@@H](C)O)C(=O)N[C@@H](Cc1ccc(O)cc1)C(=O)N[C@@H](Cc1ccccc1)C(N)=O [CTRL, reference compound] (Ac-GPTRREDKFMYF-NH2)

- Interaction with Ship2-Sam by chemical shift perturbation (Ship2-Sam [3]): weak interactions
Molecule: CC[C@H](C)[C@H](NC(=O)[C@H](CCCNC(=N)N)NC(=O)[C@H](CCCCN)NC(=O)[C@H](CC(N)=O)NC(=O)[C@H](C)NC(=O)[C@H](CCSC)NC(=O)[C@H](Cc1ccccc1)NC(=O)[C@H](CCCCN)NC(=O)[C@H](Cc1ccc(O)cc1)NC(=O)[C@H](Cc1c[nH]c2ccccc12)NC(=O)[C@H](CCC(=O)O)NC(=O)[C@H](CCCNC(=N)N)NC(=O)[C@H](CCSC)NC(C)=O)C(=O)N[C@@H](C)C(=O)N[C@@H](Cc1ccc(O)cc1)C(N)=O [PSscan266] (Ac-MREWYKFMANKRIAY-NH2)
- Self-aggregation [4]: could be affected by a certain amount of self-aggregation

- Interaction with Ship2-Sam by chemical shift perturbation (Ship2-Sam [3]): weakest
Molecule: CC[C@H](C)[C@H](NC(=O)[C@H](CCCNC(=N)N)NC(=O)[C@H](CCCCN)NC(=O)[C@H](CC(N)=O)NC(=O)[C@H](C)NC(=O)[C@H](CCSC)NC(=O)[C@H](Cc1ccccc1)NC(=O)[C@H](CCCCN)NC(=O)[C@H](Cc1ccc(O)cc1)NC(=O)[C@H](Cc1c[nH]c2ccccc12)NC(=O)[C@H](CC(=O)O)NC(=O)[C@H](CCCNC(=N)N)NC(=O)[C@H](CCCCN)NC(C)=O)C(=O)N[C@@H](C)C(=O)N[C@@H](Cc1ccc(O)cc1)C(N)=O [PSscan258] (Ac-KRDWYKFMANKRIAY-NH2)

More lines, now with the values behind:

Molecule: CC[C@H](C)[C@H](NC(=O)[C@H](CCCNC(=N)N)NC(=O)[C@H](CCCCN)NC(=O)[C@H](CC(N)=O)NC(=O)[C@H](C)NC(=O)[C@H](CC(C)C)NC(=O)[C@H](Cc1ccccc1)NC(=O)[C@H](CCCCN)NC(=O)[C@H](Cc1ccc(O)cc1)NC(=O)[C@H](Cc1c[nH]c2ccccc12)NC(=O)[C@H](CCC(=O)O)NC(=O)[C@H](CCCNC(=N)N)NC(=O)[C@H](CCCCN)NC(=O)CNC(=O)CNC(=O)[C@H](CCC(N)=O)NC(=O)[C@@H]1CCCN1C(=O)[C@@H]1CCCN1C(=O)[C@H](CCCNC(=N)N)NC(=O)[C@H](CCCNC(=N)N)NC(=O)[C@H](CCCNC(=N)N)NC(=O)[C@H](CCC(N)=O)NC(=O)[C@H](CCCNC(=N)N)NC(=O)[C@H](CCCNC(=N)N)NC(=O)[C@H](CCCCN)NC(=O)[C@H](CCCCN)NC(=O)[C@H](CCCNC(=N)N)NC(=O)CNC(=O)CCNC(=O)CCCCCNC(=S)Nc1ccc2c(c1)C(=O)OC21c2ccc(O)cc2Oc2cc(O)ccc21)C(=O)N[C@@H](C)C(=O)N[C@@H](Cc1ccc(O)cc1)C(N)=O [FITC-TAT-PSscan255] ({FITC-Ahx-βAla}-GRKKRRQRRRPPQGGKREWYKFLANKRIAY-NH2)
- Cellular localization after uptake (PC-3 cells): positioned in the cytoplasm

Molecule: CC[C@H](C)[C@H](NC(=O)[C@H](CCCNC(=N)N)NC(=O)[C@H](CCCCN)NC(=O)[C@H](CC(N)=O)NC(=O)[C@H](C)NC(=O)[C@H](CC(C)C)NC(=O)[C@H](Cc1ccccc1)NC(=O)[C@H](CCCCN)NC(=O)[C@H](Cc1ccc(O)cc1)NC(=O)[C@H](Cc1c[nH]c2ccccc12)NC(=O)[C@H](CCC(=O)O)NC(=O)[C@H](CCCNC(=N)N)NC(=O)[C@H](CCCCN)NC(C)=O)C(=O)N[C@@H](C)C(=O)N[C@@H](Cc1ccc(O)cc1)C(N)=O [PSscan255] (Ac-KREWYKFLANKRIAY-NH2)
- Kd (Ship2-Sam [1]): ~70 µM and 70 µM
- remaining at 5 h, 80 µM ([2]; 5 h, read-out: Peptide recovered after incubation with FBS): 80%
- remaining at 19 h, 80 µM ([2]; 19 h, read-out: Peptide not degraded after incubation with FBS): 50%

B1: Ship2-Sam Sam (protein)
chain: ASGLGEAGMSAWLRAIGLERYEEGLVHNGWDDLEFLSDITEEDLEEAGVQDPAHKRLLLDTLQLSK
- Kd (PSscan255): 70 µM
